According to patent publication US8076487B2, “Pyridone derivative and herbicide” (Kumiai Chemical Industry Co., Ltd., priority 2006, dated 2011):

Tests used:
Experiment in all cases: Test Example 1: herbicidal effect by soil application to paddy field
Type in all cases: in vivo
[1] = system: early watergrass (Echinochloa oryzicola Vasing); settings: for herbicidal effect, Echinochloa oryzicola Vasing: paddy field soil application, active ingredient 1,000 g per 1 hectare, wettable powder added dropwise to water surface the day after sowing, examined on the 21st day after application
Text: (§1) Test Example 1 Test on Herbicidal Effect by Soil Application to Paddy Field In a 100 cm2 plastic pot, paddy field soil was filled. After puddling and leveling, seeds of early watergrass (Echinochloa oryzicola […] (Monochoria vaginalis ([…] Japanese bulrush (Scirpus juncoides Roxb.) were sown, and water was filled to be flooded to a water depth of 3 cm. […] Then, on the 21st day after the application to the plants grew in a greenhouse, the herbicidal effect was examined in accordance with a standard shown in Table 34. [table]

[2] = system: heartshape false pickerelweed (Monochoria vaginalis (Burm.f.) C.Presl); settings: for herbicidal effect, Monochoria vaginalis (Burm. f.) C. Presl: paddy field soil application, active ingredient 1,000 g per 1 hectare, wettable powder added dropwise to water surface the day after sowing, examined on the 21st day after application
Text: as §1

[3] = system: Japanese bulrush (Scirpus juncoides Roxb.); settings: for herbicidal effect, Scirpus juncoides Roxb.: paddy field soil application, active ingredient 1,000 g per 1 hectare, wettable powder added dropwise to water surface the day after sowing, examined on the 21st day after application
Text: as §1

[4] = soil application to paddy field, rated by standard of Table 34

| Structure (SMILES) | herbicidal effect, Echinochloa oryzicola Vasing [1] | herbicidal effect, Monochoria vaginalis (Burm. f.) C. Presl [2] | herbicidal effect, Scirpus juncoides Roxb. [3] | herbicidal effect (index), Echinochloa oryzicola Vasing [1, 4] | herbicidal effect (index), Monochoria vaginalis (Burm.f.) C.Presl [2, 4] | herbicidal effect (index), Scirpus juncoides Roxb. [3, 4] |
| --- | --- | --- | --- | --- | --- | --- |
| CCCS(=O)(=O)Oc1c(C(=O)c2ccc(C(F)(F)F)n(CC3CCCO3)c2=O)c(C)nn1C (stereo not drawn) [IV-239] | 5 (90% or more of herbicidal effect and crop phytotoxicity) | 5 (90% or more of herbicidal effect and crop phytotoxicity) | 5 (90% or more of herbicidal effect and crop phytotoxicity) |  |  |  |
| O=C(Nn1c(C(F)(F)F)ccc(C(=O)C2=C(O)CCCC2=O)c1=O)OCc1ccccc1 [I-196] | 5 (90% or more of herbicidal effect and crop phytotoxicity) | 5 (90% or more of herbicidal effect and crop phytotoxicity) | 4 (70 to less than 90% of herbicidal effect and crop phytotoxicity) |  |  |  |
| CCCS(=O)(=O)Oc1c(C(=O)c2ccc(C(F)(F)F)n(CC(C)OCc3ccccc3)c2=O)cnn1C (stereo not drawn) [IV-49] | 5 (90% or more of herbicidal effect and crop phytotoxicity) | 5 (90% or more of herbicidal effect and crop phytotoxicity) | 3 (50 to less than 70% of herbicidal effect and crop phytotoxicity) |  |  |  |
| Cn1ncc(C(=O)c2ccc(C(F)(F)F)n(CC3CCCO3)c2=O)c1OC(=O)c1ccc(C(C)(C)C)cc1 (stereo not drawn) [IV-132] | 5 (90% or more of herbicidal effect and crop phytotoxicity) | 5 (90% or more of herbicidal effect and crop phytotoxicity) | 5 (90% or more of herbicidal effect and crop phytotoxicity) |  |  |  |
| O=C1CCCC(O)=C1C(=O)c1ccc(C(F)(F)F)n(Cc2ccccc2[N+](=O)[O-])c1=O [I-115] | 5 (90% or more of herbicidal effect and crop phytotoxicity) | 5 (90% or more of herbicidal effect and crop phytotoxicity) | 5 (90% or more of herbicidal effect and crop phytotoxicity) |  |  |  |
| COc1cccc(Cn2c(C(F)(F)F)ccc(C(=O)c3cnn(C)c3O)c2=O)c1 [IV-103] | 4 (70 to less than 90% of herbicidal effect and crop phytotoxicity) | 5 (90% or more of herbicidal effect and crop phytotoxicity) | 4 (70 to less than 90% of herbicidal effect and crop phytotoxicity) |  |  |  |
| COc1cccc(Cn2c(C(F)(F)F)ccc(C(=O)C3=C(O)CCCC3=O)c2=O)c1 [I-121] | 5 (90% or more of herbicidal effect and crop phytotoxicity) | 5 (90% or more of herbicidal effect and crop phytotoxicity) | 5 (90% or more of herbicidal effect and crop phytotoxicity) |  |  |  |
| CS(=O)(=O)c1ccc(Cn2c(C(F)(F)F)ccc(C(=O)C3=C(O)CCCC3=O)c2=O)cc1 [I-123] | 5 (90% or more of herbicidal effect and crop phytotoxicity) | 5 (90% or more of herbicidal effect and crop phytotoxicity) | 5 (90% or more of herbicidal effect and crop phytotoxicity) |  |  |  |
| COc1ccc(-n2c(C(F)(F)F)ccc(C(=O)c3cnn(C)c3O)c2=O)c(OC)c1 [IV-76] | 4 (70 to less than 90% of herbicidal effect and crop phytotoxicity) | 5 (90% or more of herbicidal effect and crop phytotoxicity) | 5 (90% or more of herbicidal effect and crop phytotoxicity) |  |  |  |
| C=CCn1ncc(C(=O)c2ccc(C(F)(F)F)n(C)c2=O)c1O [IV-225] | 5 (90% or more of herbicidal effect and crop phytotoxicity) | 5 (90% or more of herbicidal effect and crop phytotoxicity) | 5 (90% or more of herbicidal effect and crop phytotoxicity) |  |  |  |
| CCn1ncc(C(=O)c2ccc(C(F)(F)F)n(CC3CCCO3)c2=O)c1OC(=O)c1c(Cl)cc(Cl)cc1Cl (stereo not drawn) [IV-206] | 5 (90% or more of herbicidal effect and crop phytotoxicity) | 5 (90% or more of herbicidal effect and crop phytotoxicity) | 5 (90% or more of herbicidal effect and crop phytotoxicity) |  |  |  |
| Cc1ccc(S(=O)(=O)Oc2c(C(=O)c3ccc(C(F)(F)F)n(C)c3=O)cnn2C)cc1 [IV-194, 4-[1,2-dihydro-1-methyl-2-oxo-6-(trifluoromethyl)pyridine-3-carbonyl]-1-methyl-5-tosyloxy-1H-pyrazole] | 5 (90% or more of herbicidal effect and crop phytotoxicity) | 5 (90% or more of herbicidal effect and crop phytotoxicity) | 5 (90% or more of herbicidal effect and crop phytotoxicity) |  |  |  |
| Cn1ncc(C(=O)c2ccc(C(F)(F)F)n(CCCS(C)(=O)=O)c2=O)c1O [IV-60] | 5 (90% or more of herbicidal effect and crop phytotoxicity) | 5 (90% or more of herbicidal effect and crop phytotoxicity) | 5 (90% or more of herbicidal effect and crop phytotoxicity) |  |  |  |
| CSCCCn1c(C(F)(F)F)ccc(C(=O)c2cnn(C)c2O)c1=O [IV-56] | 5 (90% or more of herbicidal effect and crop phytotoxicity) | 5 (90% or more of herbicidal effect and crop phytotoxicity) | 5 (90% or more of herbicidal effect and crop phytotoxicity) |  |  |  |
| COCCCn1c(C(F)(F)F)ccc(C(=O)C2=C(Sc3ccccc3)CCCC2=O)c1=O [II-30] | 5 (90% or more of herbicidal effect and crop phytotoxicity) | 5 (90% or more of herbicidal effect and crop phytotoxicity) | 5 (90% or more of herbicidal effect and crop phytotoxicity) |  |  |  |
| Cn1c(C(F)(F)Cl)ccc(C(=O)C2=C(O)CCCC2=O)c1=O [I-225] | 5 (90% or more of herbicidal effect and crop phytotoxicity) | 5 (90% or more of herbicidal effect and crop phytotoxicity) | 5 (90% or more of herbicidal effect and crop phytotoxicity) |  |  |  |
| Cn1ncc(C(=O)c2ccc(C(F)(F)F)n(CC3CCCO3)c2=O)c1OC(=O)c1c(F)cc(F)cc1F (stereo not drawn) [IV-134] | 5 (90% or more of herbicidal effect and crop phytotoxicity) | 5 (90% or more of herbicidal effect and crop phytotoxicity) | 5 (90% or more of herbicidal effect and crop phytotoxicity) |  |  |  |
| Cn1c(C(F)(F)F)ccc(C(=O)C2=C(Sc3c(Cl)cccc3Cl)CCCC2=O)c1=O [II-15] | 5 (90% or more of herbicidal effect and crop phytotoxicity) | 5 (90% or more of herbicidal effect and crop phytotoxicity) | 5 (90% or more of herbicidal effect and crop phytotoxicity) |  |  |  |
| CCCS(=O)(=O)Oc1c(C(=O)c2ccc(C(F)(F)F)n(CCCSC)c2=O)cnn1C [IV-57] | 5 (90% or more of herbicidal effect and crop phytotoxicity) | 5 (90% or more of herbicidal effect and crop phytotoxicity) | 2 (30 to less than 50% of herbicidal effect and crop phytotoxicity) |  |  |  |
| Cn1c(C(F)(F)F)ccc(C(=O)C(C#N)C(=O)C2CC2)c1=O (stereo not drawn) [V-9, 2-cyano-3-cyclopropyl-1-[1,2-dihydro-1-methyl-2-oxo-6-(trifluoromethyl)pyridin-3-yl]propane-1,3-dione] |  |  |  | 5 (90% or more of herbicidal effect and crop phytotoxicity) | 5 (90% or more of herbicidal effect and crop phytotoxicity) | 5 (90% or more of herbicidal effect and crop phytotoxicity) |
| Cn1c(C(F)(F)F)ccc(C(=O)C2=C(O)C(C)(C)CCC2=O)c1=O [II-2] | 5 (90% or more of herbicidal effect and crop phytotoxicity) | 5 (90% or more of herbicidal effect and crop phytotoxicity) | 5 (90% or more of herbicidal effect and crop phytotoxicity) |  |  |  |
| Cc1ccc(C(=O)C2=C(O)CCCC2=O)c(=O)n1-c1cccc(C(F)(F)F)c1 [I-235] | 5 (90% or more of herbicidal effect and crop phytotoxicity) | 5 (90% or more of herbicidal effect and crop phytotoxicity) | 5 (90% or more of herbicidal effect and crop phytotoxicity) |  |  |  |
| O=C1CCCC(O)=C1C(=O)c1ccc(C(F)(F)F)n(-c2ccc(NS(=O)(=O)C(F)(F)F)cc2)c1=O [I-97] | 4 (70 to less than 90% of herbicidal effect and crop phytotoxicity) | 5 (90% or more of herbicidal effect and crop phytotoxicity) | 4 (70 to less than 90% of herbicidal effect and crop phytotoxicity) |  |  |  |
